{
  "source": "ChEMBL document CHEMBL3132769",
  "about": "“Fragment growing to retain or alter the selectivity of anchored kinase hinge-binding fragments” (Medchemcomm, 2014)",
  "key": {"[1]": {"target": "T1, Serine/threonine-protein kinase BRSK2 (Homo sapiens) (UniProt Q8IWQ3)", "T1 sequence (whole entry)": "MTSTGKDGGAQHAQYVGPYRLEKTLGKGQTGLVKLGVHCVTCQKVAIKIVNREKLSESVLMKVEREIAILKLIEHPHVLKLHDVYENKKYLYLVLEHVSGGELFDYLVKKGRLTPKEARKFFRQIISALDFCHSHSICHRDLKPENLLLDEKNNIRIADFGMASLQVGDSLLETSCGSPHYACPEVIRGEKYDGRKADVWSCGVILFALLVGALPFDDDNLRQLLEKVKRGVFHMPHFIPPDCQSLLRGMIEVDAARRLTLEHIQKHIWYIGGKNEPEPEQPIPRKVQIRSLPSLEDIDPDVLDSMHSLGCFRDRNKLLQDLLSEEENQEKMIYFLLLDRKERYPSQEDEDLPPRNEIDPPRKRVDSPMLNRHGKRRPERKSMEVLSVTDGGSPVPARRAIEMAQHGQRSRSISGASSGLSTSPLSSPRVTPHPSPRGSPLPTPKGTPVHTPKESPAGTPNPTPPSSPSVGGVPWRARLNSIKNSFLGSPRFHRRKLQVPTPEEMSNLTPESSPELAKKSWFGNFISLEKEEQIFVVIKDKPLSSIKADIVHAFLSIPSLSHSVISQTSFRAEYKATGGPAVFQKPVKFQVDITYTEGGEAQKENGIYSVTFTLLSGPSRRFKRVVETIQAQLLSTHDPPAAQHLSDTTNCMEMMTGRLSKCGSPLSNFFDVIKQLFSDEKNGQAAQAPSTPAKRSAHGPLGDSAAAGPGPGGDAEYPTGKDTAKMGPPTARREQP", "experiment": "Inhibition of human truncated BRSK2 expressed in baculovirus assessed as substrate phosphorylation using fluorescence-labelled peptides as substrate at 0.2 uM after 90 mins by microfluidic peptide phosphorylation assay"}, "[2]": {"target": "T2, Cytoplasmic tyrosine-protein kinase BMX (Homo sapiens) (UniProt P51813)", "T2 sequence (whole entry)": "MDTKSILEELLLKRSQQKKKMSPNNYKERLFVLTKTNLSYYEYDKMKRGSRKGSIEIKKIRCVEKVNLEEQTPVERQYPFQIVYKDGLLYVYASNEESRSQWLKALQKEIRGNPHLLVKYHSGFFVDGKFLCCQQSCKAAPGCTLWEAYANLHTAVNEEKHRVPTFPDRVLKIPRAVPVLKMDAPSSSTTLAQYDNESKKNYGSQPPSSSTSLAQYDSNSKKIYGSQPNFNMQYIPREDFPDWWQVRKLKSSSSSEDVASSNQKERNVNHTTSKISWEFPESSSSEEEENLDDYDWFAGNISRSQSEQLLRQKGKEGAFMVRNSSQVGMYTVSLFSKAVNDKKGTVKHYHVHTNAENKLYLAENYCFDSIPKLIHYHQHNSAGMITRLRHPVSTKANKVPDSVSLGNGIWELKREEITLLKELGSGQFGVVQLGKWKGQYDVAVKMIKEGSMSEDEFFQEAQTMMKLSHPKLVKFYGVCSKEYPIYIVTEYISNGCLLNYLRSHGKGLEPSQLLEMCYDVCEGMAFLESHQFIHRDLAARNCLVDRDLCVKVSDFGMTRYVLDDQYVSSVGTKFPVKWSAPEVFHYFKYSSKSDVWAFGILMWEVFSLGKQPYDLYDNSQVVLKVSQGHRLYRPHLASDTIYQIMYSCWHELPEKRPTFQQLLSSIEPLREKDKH", "experiment": "Inhibition of human full length BMX expressed in baculovirus assessed as substrate phosphorylation using fluorescence-labelled peptides as substrate at 95 uM after 90 mins by microfluidic peptide phosphorylation assay"}, "[3]": {"tested_on": "Tyrosine-protein kinase ABL1 (Homo sapiens), P00519 [Q252H]", "experiment": "Inhibition of human truncated ABL Q252H mutant expressed in baculovirus assessed as substrate phosphorylation using fluorescence-labelled peptides as substrate at 9 uM after 90 mins by microfluidic peptide phosphorylation assay"}, "[4]": {"target": "T3, Serine/threonine-protein kinase D1 (Homo sapiens) (UniProt Q15139)", "T3 sequence (whole entry)": "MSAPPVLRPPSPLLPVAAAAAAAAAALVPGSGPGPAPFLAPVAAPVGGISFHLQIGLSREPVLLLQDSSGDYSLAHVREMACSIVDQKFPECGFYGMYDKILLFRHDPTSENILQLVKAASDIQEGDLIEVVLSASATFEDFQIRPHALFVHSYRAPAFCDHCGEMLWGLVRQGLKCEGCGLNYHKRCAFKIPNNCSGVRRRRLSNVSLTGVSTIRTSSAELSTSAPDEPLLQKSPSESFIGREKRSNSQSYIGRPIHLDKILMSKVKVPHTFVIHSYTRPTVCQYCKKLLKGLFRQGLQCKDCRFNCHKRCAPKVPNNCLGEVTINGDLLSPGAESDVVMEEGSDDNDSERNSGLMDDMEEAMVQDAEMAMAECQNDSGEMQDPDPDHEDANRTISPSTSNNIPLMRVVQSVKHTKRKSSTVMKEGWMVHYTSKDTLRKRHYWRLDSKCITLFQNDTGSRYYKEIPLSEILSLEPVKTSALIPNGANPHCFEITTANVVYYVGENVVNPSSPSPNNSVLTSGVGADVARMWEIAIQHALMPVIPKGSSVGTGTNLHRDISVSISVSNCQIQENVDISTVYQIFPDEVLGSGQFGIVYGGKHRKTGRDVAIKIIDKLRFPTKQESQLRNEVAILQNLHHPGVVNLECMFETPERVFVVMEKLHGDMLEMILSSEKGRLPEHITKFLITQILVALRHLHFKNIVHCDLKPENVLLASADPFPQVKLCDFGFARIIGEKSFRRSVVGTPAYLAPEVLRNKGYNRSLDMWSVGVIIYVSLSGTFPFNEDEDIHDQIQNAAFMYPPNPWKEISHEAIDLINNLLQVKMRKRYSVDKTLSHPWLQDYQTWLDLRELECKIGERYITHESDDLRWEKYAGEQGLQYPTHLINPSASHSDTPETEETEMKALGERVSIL", "experiment": "Inhibition of human full length PKD1 expressed in baculovirus assessed as substrate phosphorylation using fluorescence-labelled peptides as substrate at 2 uM after 90 mins by microfluidic peptide phosphorylation assay"}, "[5]": {"target": "Serine/threonine-protein kinase PAK 2 (Homo sapiens) (UniProt Q13177)", "sequence (Q13177 whole entry, the tested form may be a part)": "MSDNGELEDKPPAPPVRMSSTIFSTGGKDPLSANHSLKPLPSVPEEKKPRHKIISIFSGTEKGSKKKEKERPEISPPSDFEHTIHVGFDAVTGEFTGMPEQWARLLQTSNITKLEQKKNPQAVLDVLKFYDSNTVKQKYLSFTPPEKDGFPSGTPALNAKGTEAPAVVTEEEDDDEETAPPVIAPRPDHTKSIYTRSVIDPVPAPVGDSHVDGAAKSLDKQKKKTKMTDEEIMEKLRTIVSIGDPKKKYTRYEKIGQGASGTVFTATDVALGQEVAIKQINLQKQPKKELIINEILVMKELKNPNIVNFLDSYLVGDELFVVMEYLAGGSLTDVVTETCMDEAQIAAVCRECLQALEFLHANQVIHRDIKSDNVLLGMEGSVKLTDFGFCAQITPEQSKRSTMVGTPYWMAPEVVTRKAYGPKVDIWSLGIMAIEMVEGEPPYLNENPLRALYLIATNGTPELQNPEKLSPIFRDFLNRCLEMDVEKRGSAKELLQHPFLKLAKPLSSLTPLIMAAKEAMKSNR", "experiment": "Inhibition of human truncated PAK2 expressed in Escherichia coli cell assessed as substrate phosphorylation using fluorescence-labelled peptides as substrate at 2 uM after 90 mins by microfluidic peptide phosphorylation assay"}},
  "data": [
    {"compound": "Clc1ccc(C2(c3ccc(-c4ncnc5[nH]cnc45)cc3)CCNCC2)cc1", "values": [
      {"measurement": "inhibition", "setting": "[1]", "value": 13, "unit": "%"}
    ]},
    {"compound": "NCCc1ccc(-c2ncnc3[nH]cnc23)cc1", "values": [
      {"measurement": "inhibition", "setting": "[2]", "value": 0, "unit": "%"}
    ]},
    {"compound": "NCC1CN(c2ncnc3[nH]c4cnccc4c23)CCO1", "note": "(stereo not given)", "values": [
      {"measurement": "inhibition", "setting": "[3]", "value": 6, "unit": "%"}
    ]},
    {"compound": "NC1CCN(c2ncnc3[nH]ccc23)CC1", "values": [
      {"measurement": "inhibition", "setting": "[4]", "value": 26, "unit": "%"},
      {"measurement": "inhibition", "setting": "[5]", "value": 3.5, "unit": "%"}
    ]}
  ]
}
